Measured values: US11247970B2, “Selective inhibition of gluconeogenic activity” (Dana-Farber Cancer Institute, Inc., priority 2017, dated 2022)

Columns and labels:
HFD fed mice = test: Insulin tolerance test (ITT); type: in vivo; conditions: HFD 3 weeks
Procedure: (§1) All mice were purchased from Jackson laboratories and housed under a 12 h light/12 h dark cycle at 22° C. Before handling, mice were allowed to acclimate for at least 1 week in our animal facility. For in vivo studies with DIO mice, males 6-8 weeks old were fed HFD for the indicated time. For drug administration, SR-18292 was re-suspended in a 10% DMSO/10% Tween80/80% PBS solution at a final concentration of 6-12 mg/ml. Metformin was re-suspended in the same solution at a 20 mg/ml concentration. SR-18292 was injected via I.P. for 3 days between 4-5 pm and food was removed on day 3 at 5 pm. […] Metformin was administered via oral gavage. […] Insulin tolerance test was performed following the same dosing protocol, but mice were fasted for 4 hours after the forth injection before performing the test. Insulin was injected via I.P. (0.5 U/Kg) and blood glucose was measured every 20 minutes. Glycemia was measured by tail bleed using a glucometer (OneTouch). For all experiments, age- and body weight-matched animals were used. For protein, RNA extracts and biochemistry studies, livers were removed following each experiment and snap frozen in liquid nitrogen. For information on number of animals in each experiment please refer to FIGS. 4, 5 and S5 legends. All studies were performed according to protocols approved by Beth Israel Deaconess Medical Center's Animal Care and Use Committee.

[1] = Serum biochemistry for liver toxicity; type: in vivo; conditions: HFD mice
Procedure: Serum samples were gathered from blood collected by cardiac puncture. Insulin was measured with Ultra Sensitive Mouse Insulin ELISA Kit (Crystal Chem, 90080). Kits used to measure alanine transaminase (EALT-100), aspartate transaminase (EASTR-100), lactate dehydrogenase (DLDH-100) were purchased from Bioassay Systems. Kits used to measure lactate (MAK 064), b-hydroxybutyrate (MAK 041), Triglycerides (TR0100) were purchased from Sigma. Kit used to measure cholesterol (C7510) was purchased from Pointe Scientific. Kit used to measure non-esterified fatty acids was purchased from Wako.
Serum enzymatic activities of alanine transaminase (ALT), aspartate aminotransferase (AST), lactate dehydrogenase (LDH) and bilirubin levels from mice fed high fat diet and treated with SR-18292. n=7.

ob/ob mice = test: Fasting glycemia and liver lipid in leptin deficient ob/ob mice; type: in vivo; conditions: diabetic leptin deficient ob/ob mice
primary hepatocytes = test: Cytotoxicity determination in primary hepatocytes (Toxilight, MTT, total protein); type: cell-based, mouse
Procedure: For cell viability determination using MTT, primary hepatocytes were seeded on a 96-well plate at 20,000 cells/well. The following day cells were treated at different doses, as indicated, for 18 h following similar protocol described above for drug treatment of primary hepatocytes. […] of MTT reagent (5 mg/ml) was then added to each well (n=4/dose) and cells were incubated for 1 h at 37° C. Medium was discarded and dye was extracted by adding […] DMSO to each well. For cytotoxicity determination using ToxiLight Non-destructive Cytotoxicity Bioassay, hepatocytes were seeded on a 6-well plate and treated with either SR-18292 ([…]) or cisplatin ([…]) for 18 h. […] of medium was collected and used to measure cellular toxicity by adding 100 of adenylate kinase detection reagent (AKDR) and incubating 5 min at RT before measuring luminescence.

Pck1 and G6pc promoters = test: Chromatin immunoprecipitation on Pck1 and G6pc in primary hepatocytes; type: cell-based, mouse
Procedure: Primary hepatocytes were fixed in 1% formaldehyde for 10 minutes at room temperature. Crosslinking was quenched by adding glycine to a final concentration of 125 mM and rinsing twice with PBS. Cells were collected in PBS containing protease inhibitors followed by lysis in chromatin immunoprecipitation (ChIP) buffer (50 mM HEPES pH, 7.9; 140 mM NaCl; 1 mM EDTA; 1% Triton X-100; 0.1% NaDOC, 0.1% sodium dodecyl sulfate (SDS) and protease inhibitors). Chromatin was sheared by sonication with a Diagenode Biorupter for three cycles of 5 minutes (30 seconds on, 30 seconds off). Samples were clarified and chromatin immunoprecipitated overnight at 4° C. with the indicated antibody. Immune complexes were recovered with Protein A magnetic beads (Dynabeads; Novex, Life Technologies) preblocked with salmon sperm DNA (Invitrogen, Life Technologies). Following extensive washes, immunoprecipitated DNA was then isolated with a Chelex. Input DNA was prepared from 10% of respective chromatin prior to precipitation. Immunoprecipitated DNA and input DNA were analyzed by quantitative real-time PCR with primers specific for the indicated region. […] To further characterize the SR-18292-mediated inhibition of HNF4α transcriptional activity, chromatin immunoprecipitation (ChIP) assays were performed to examine the promoter occupancy of HNF4α on Pck1 and [MUT] promoters. Primary hepatocytes were treated with glucagon to induce gluconeogenic gene transcripts, and antibodies against HNF4α were used to IP chromatin fragments bound to this protein. […] Epigenetic changes accompany the response to glucagon in the fasted state, including an increase in activating H3K9 acetylation (H3K9Ac) and H3K4 trimethylation (H3K4Me3) of the Pck1 and [MUT] genes.

[2] = tested on: DIO mice and Lep^ob/ob mice; test: Glucose tolerance test (GTT); type: in vivo
Procedure: as §1

[3] = tested on: interaction of GCN5 with PGC-1α; test: Co-immunoprecipitation of PGC-1α with GCN5 in U-2 OS cells; type: cell-based; conditions: endogenous and ectopically expressed GCN5
Procedure: For PGC-1α acetylation detection in hepatocytes cells were infected with Ad-PGC-1α and Ad-GCN5. Cells were collected in RIPA buffer (containing protease inhibitor cocktail, 5 mM NaF, 5 mM β-glycerophosphate, 10 mM nicotinamide, 1 mM DTT and 1 μM trichostatin A). FLAG-HA-PGC-1α was immunoprecipitated overnight at 4° C. with FLAG beads (Sigma A2220). For GCN5 interaction with PGC-1α, U-2 OS cells were infected with Ad-PGC-1α. Nuclear extracts were obtained by lysing cell in Buffer A (10 mM HEPES-KOH (pH 7.9), 10 mM KCl, 1.5 mM MgCl2, 0.5 mM DTT, 0.25% IGEPAL (v/v), 5 mM NaF, 5 mM β-glycerophosphate, 5 mM sodium butyrate and 10 mM nicotinamide), supplemented with Protease Inhibitor Cocktail. Once cytoplasmic fractions were separated, nuclear pellets were lysed in Buffer B (20 mM HEPES-KOH (pH 7.9), 125 mM NaCl, 1 mM EDTA, 1 mM DTT, 1% IGEPAL (v/v), 10% glycerol (v/v), 5 mM NaF, 5 mM β-glycerophosphate, 5 mM sodium butyrate and 10 mM nicotinamide), supplemented with Protease Inhibitor Cocktail. FLAG-HA-PGC-1α was immunoprecipitated with FLAG beads overnight at 4° C. All beads were washed at last 3 times in lysis buffer before eluting in sample loading buffer.

[4] = Food intake and body weight of treated mice; type: in vivo
Procedure: as §1

## Cc1ccc(CN(CC(O)COc2cccc3[nH]ccc23)C(C)(C)C)cc1 (stereo not shown) [SR-18292, 1-((1H-indol-4-yl)oxy)-3-(tert-butyl(4-methylbenzyl)amino)propan-2-ol]
HFD fed mice
  response to insulin: enhanced
[1]
  liver toxicity by serum ALT, AST, LDH and bilirubin: not observed
[1]; serum, 45 mg/kg, n=7
  ALT: 9.21 U/L
  AST: 29.94 U/L
  Bilirubin: 0.33 mg/dL
  LDH: 64.44 IU/L
ob/ob mice
  fasting glycemia: improved fasting glycemia
  lipid accumulation in liver: without altering lipid accumulation in liver
Primary hepatocytes; 18 h treatment
  hepatocyte toxicity by cell viability or total protein levels: did not cause hepatocyte toxicity
Primary hepatocytes; n=3
  total protein levels: not affected
Pck1 and G6pc promoters
  FoxO1 promoter occupancy: not altered
  H3K9Ac and H3K4Me3 marks on the Pck1 gene: reduced H3K9Ac and H3K4Me3 marks
Pck1 and G6pc promoters; glucagon 200 nM
  glucagon-induced Pck1 and G6pc promoter occupancy by HNF4α: significantly reduced
[2]; DIO mice
  glucose tolerance: significantly enhanced glucose tolerance
[2]; Lep^ob/ob mice
  glucose tolerance: significantly enhanced glucose tolerance
[2]; mouse, in vivo
  insulin levels after GTT: lower
[3]
  interaction of GCN5 with PGC-1α: increased
[4]; first 48 hours of treatment
  food intake: neither food intake nor body weight were changed
[4]; mouse, in vivo
  body weight: neither food intake nor body weight were changed
